Activity calls are given as the source filed them. The rule behind the calls is not given here.
Test system: CCRIS mutagenicity, Ames/micronucleus/aberration tests
Experiment: CCRIS mutagenicity studies
Settings: Test System: AMES SALMONELLA TYPHIMURIUM, Metabolic Activation: RAT, LIVER, S-9, AROCLOR 1254, Method: STANDARD PLATE

Measured: mutagenic call

C1=Cc2c(cc3ccc4cccc5ccc2c3c45)CC1
active: Strain/Indicator: TA98 active; positive | Strain/Indicator: TA1537 active; positive | Strain/Indicator: TA1538 active; positive

From PubChem BioAssay AID1259407 (Chemical Carcinogenesis Research Information System (CCRIS), 2018)
